Experiments:
Test in all cases: SILAC proteomics / in-gel fluorescence, competition of probe 13-t labeling by 3a
[1] = molecular target: proteins of HEK293T cells transiently overexpressing caspase-6 (Homo sapiens, UniProt P12004); conditions: Comp; protein PCNA P12004
[2] = molecular target: proteins of HEK293T cells transiently overexpressing caspase-6 (Homo sapiens, UniProt P07437); conditions: Comp; protein TUBB P07437
[3] = molecular target: proteins of HEK293T cells transiently overexpressing caspase-6 (Homo sapiens, UniProt P83731); conditions: Comp; protein RPL24 P83731
[4] = molecular target: proteins of HEK293T cells transiently overexpressing caspase-6 (Homo sapiens, UniProt P54886); conditions: Comp; protein ALDH18A1 P54886
proteins of HEK293T cells transiently overexpressing caspase-6 (Homo sapiens, UniProt P54886), sequence (P54886 whole entry): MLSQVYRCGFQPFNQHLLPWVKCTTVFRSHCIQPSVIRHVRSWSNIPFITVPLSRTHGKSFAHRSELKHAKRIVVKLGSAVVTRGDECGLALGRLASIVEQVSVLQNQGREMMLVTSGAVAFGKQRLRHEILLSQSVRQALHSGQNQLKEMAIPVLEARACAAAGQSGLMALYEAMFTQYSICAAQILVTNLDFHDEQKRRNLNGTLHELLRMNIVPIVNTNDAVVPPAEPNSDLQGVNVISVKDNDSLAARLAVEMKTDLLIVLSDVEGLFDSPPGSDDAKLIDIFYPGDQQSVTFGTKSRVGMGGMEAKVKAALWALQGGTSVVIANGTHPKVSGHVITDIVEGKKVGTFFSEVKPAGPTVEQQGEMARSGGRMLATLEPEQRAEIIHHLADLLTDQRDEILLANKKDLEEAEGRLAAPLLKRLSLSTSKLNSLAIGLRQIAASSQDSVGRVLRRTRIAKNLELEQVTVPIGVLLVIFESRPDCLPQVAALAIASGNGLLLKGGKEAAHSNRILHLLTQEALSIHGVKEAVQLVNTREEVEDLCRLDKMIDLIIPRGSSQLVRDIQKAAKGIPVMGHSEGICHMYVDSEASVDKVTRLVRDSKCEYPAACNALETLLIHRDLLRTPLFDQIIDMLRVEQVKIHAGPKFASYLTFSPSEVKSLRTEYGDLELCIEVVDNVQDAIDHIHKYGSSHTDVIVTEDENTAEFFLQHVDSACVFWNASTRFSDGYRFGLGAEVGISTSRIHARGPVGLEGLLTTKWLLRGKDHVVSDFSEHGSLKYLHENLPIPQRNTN

[5] = molecular target: proteins of HEK293T cells transiently overexpressing caspase-6 (Homo sapiens, UniProt Q99460)
proteins of HEK293T cells transiently overexpressing caspase-6 (Homo sapiens, UniProt Q99460), sequence (Q99460 whole entry): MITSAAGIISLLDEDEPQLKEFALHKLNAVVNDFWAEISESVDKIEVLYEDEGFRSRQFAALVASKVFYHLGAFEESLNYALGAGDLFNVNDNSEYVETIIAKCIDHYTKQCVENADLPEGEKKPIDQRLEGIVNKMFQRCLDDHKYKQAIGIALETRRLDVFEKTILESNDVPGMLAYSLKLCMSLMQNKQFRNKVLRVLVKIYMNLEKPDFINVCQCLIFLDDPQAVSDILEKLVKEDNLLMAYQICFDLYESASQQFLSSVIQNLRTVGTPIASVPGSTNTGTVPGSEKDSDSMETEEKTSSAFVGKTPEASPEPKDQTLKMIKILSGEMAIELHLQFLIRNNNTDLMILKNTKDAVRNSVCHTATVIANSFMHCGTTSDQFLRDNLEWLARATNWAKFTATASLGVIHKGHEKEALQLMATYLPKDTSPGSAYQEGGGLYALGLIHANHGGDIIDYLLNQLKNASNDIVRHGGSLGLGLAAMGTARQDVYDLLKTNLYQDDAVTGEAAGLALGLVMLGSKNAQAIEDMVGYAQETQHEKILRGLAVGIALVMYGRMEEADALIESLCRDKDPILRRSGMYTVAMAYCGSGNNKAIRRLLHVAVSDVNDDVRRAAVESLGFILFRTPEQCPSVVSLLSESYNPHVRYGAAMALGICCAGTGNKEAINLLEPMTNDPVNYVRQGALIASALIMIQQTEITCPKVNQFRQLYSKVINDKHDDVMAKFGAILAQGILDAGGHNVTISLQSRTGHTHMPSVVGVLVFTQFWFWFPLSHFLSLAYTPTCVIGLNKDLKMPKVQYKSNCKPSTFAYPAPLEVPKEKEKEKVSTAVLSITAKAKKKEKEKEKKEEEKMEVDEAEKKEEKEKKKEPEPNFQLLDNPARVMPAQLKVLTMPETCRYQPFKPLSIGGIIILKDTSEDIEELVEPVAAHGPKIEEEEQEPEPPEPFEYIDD

[6] = molecular target: proteins of HEK293T cells transiently overexpressing caspase-6 (Homo sapiens, UniProt P52272); conditions: Comp; protein HNRNPM P52272
[7] = molecular target: proteins of HEK293T cells transiently overexpressing caspase-6 (Homo sapiens, UniProt P13804); conditions: Comp; protein ETFA P13804
[8] = molecular target: proteins of HEK293T cells transiently overexpressing caspase-6 (Homo sapiens, UniProt P27635); conditions: Comp; protein RPL10 P27635
[9] = molecular target: proteins of HEK293T cells transiently overexpressing caspase-6 (Homo sapiens, UniProt P62888); conditions: Comp; protein RPL30 P62888
[10] = molecular target: proteins of HEK293T cells transiently overexpressing caspase-6 (Homo sapiens, UniProt P33992); conditions: Comp; protein MCM5 P33992
[11] = molecular target: proteins of HEK293T cells transiently overexpressing caspase-6 (Homo sapiens, UniProt P40938); conditions: Comp; protein RFC3 P40938
proteins of HEK293T cells transiently overexpressing caspase-6 (Homo sapiens, UniProt P40938), sequence (P40938 whole entry): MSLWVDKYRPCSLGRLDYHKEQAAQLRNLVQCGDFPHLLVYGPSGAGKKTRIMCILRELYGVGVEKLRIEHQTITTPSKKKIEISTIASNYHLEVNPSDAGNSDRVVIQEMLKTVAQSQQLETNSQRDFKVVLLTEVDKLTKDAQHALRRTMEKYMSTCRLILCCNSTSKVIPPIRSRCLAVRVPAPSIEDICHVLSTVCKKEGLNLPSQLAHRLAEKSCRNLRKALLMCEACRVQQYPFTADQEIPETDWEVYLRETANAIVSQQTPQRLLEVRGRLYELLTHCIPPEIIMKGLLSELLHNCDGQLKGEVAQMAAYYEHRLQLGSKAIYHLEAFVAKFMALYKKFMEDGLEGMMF

[12] = molecular target: proteins of HEK293T cells transiently overexpressing caspase-6 (Homo sapiens, UniProt O43143); conditions: Comp; protein DHX15 O43143
proteins of HEK293T cells transiently overexpressing caspase-6 (Homo sapiens, UniProt O43143), sequence (O43143 whole entry): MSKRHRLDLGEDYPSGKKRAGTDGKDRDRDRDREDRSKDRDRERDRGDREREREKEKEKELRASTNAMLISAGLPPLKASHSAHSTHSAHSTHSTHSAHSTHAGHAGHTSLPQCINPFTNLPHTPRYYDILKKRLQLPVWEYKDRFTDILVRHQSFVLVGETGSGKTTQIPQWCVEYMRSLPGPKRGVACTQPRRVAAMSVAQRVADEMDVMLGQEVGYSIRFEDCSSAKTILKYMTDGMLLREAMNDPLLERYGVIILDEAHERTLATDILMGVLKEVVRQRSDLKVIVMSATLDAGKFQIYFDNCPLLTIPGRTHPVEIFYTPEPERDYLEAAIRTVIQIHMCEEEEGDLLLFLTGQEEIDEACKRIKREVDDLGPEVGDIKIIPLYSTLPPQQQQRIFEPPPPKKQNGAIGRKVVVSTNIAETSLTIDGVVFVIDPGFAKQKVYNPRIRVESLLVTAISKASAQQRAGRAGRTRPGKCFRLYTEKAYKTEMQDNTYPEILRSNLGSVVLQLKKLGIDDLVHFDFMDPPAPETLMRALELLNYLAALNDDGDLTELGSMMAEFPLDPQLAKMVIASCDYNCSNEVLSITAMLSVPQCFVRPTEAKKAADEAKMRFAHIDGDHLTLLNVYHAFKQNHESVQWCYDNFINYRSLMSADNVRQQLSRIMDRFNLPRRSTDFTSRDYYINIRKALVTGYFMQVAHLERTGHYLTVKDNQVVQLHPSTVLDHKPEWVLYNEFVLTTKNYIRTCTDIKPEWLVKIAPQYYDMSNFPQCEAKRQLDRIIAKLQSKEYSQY

[13] = molecular target: proteins of HEK293T cells transiently overexpressing caspase-6 (Homo sapiens, UniProt P39748); conditions: Comp; protein FEN1 P39748
proteins of HEK293T cells transiently overexpressing caspase-6 (Homo sapiens, UniProt P39748), sequence (P39748 whole entry): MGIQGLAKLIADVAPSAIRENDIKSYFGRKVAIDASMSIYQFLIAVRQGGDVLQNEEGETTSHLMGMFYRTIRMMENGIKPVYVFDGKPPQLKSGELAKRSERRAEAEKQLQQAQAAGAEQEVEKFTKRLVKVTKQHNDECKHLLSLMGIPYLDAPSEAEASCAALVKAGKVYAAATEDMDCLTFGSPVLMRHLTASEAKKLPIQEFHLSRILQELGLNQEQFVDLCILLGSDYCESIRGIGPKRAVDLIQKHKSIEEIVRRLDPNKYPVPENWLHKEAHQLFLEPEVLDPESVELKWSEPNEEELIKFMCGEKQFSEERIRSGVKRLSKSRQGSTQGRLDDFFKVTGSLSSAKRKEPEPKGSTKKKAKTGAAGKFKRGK

[14] = molecular target: proteins of HEK293T cells transiently overexpressing caspase-6 (Homo sapiens, UniProt P31943); conditions: Comp; protein HNRNPH1 P31943
proteins of HEK293T cells transiently overexpressing caspase-6 (Homo sapiens, UniProt P31943), sequence (P31943 whole entry): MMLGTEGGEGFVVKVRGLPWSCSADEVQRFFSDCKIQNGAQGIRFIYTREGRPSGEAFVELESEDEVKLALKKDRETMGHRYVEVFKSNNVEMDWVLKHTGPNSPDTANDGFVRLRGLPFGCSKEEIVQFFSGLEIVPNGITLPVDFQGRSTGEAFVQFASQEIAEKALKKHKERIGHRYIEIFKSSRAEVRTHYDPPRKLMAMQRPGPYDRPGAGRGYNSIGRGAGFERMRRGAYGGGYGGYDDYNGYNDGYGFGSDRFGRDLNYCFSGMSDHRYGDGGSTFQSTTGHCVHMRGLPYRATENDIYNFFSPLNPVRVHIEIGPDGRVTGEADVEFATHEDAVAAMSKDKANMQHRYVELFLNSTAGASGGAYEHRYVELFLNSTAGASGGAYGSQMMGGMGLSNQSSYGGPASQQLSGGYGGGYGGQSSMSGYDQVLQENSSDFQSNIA

[15] = molecular target: T1, proteins of HEK293T cells transiently overexpressing caspase-6 (Homo sapiens, UniProt O43175); conditions: Comp; protein PHGDH O43175
T1 sequence (O43175 1-533): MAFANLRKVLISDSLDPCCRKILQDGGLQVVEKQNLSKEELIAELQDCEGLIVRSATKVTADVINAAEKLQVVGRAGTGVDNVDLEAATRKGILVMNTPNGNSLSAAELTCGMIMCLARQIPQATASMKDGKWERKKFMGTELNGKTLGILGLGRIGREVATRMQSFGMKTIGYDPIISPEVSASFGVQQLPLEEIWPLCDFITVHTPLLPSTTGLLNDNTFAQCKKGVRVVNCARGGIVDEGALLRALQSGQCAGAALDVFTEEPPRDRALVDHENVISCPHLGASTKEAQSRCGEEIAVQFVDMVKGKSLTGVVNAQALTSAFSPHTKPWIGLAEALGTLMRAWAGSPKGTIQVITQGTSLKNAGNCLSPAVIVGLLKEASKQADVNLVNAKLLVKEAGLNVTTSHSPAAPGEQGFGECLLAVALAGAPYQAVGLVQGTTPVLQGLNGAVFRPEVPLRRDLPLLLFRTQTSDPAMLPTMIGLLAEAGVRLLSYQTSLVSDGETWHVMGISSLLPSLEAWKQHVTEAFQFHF

[16] = molecular target: proteins of HEK293T cells transiently overexpressing caspase-6 (Homo sapiens, UniProt Q7KZF4); conditions: Comp; protein SND1 Q7KZF4
proteins of HEK293T cells transiently overexpressing caspase-6 (Homo sapiens, UniProt Q7KZF4), sequence (Q7KZF4 whole entry): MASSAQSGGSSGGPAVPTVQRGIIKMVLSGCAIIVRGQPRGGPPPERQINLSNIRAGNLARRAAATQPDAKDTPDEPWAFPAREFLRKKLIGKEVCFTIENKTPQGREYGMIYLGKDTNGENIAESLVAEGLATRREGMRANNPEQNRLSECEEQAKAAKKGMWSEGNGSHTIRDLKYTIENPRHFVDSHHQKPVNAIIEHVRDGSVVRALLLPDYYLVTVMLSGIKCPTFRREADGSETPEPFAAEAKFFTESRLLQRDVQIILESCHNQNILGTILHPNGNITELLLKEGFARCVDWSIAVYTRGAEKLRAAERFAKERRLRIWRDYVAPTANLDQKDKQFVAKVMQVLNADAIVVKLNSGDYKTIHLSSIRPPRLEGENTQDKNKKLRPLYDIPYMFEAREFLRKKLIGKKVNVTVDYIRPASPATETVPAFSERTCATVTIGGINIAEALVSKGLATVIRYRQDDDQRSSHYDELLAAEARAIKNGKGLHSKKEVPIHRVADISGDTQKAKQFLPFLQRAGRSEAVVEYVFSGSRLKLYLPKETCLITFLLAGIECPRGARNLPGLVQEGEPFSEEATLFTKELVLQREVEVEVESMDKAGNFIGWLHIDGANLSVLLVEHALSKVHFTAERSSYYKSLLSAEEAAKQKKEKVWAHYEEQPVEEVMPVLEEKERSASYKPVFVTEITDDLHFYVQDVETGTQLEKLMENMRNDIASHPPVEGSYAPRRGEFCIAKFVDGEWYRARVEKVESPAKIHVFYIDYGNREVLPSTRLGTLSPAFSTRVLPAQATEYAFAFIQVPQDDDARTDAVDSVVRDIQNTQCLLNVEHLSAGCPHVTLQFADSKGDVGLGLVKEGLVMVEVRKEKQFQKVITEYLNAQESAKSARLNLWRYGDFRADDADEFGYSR

[17] = molecular target: proteins of HEK293T cells transiently overexpressing caspase-6 (Homo sapiens, UniProt P31939); conditions: Comp; protein ATIC P31939
[18] = molecular target: proteins of HEK293T cells transiently overexpressing caspase-6 (Homo sapiens, UniProt Q15029); conditions: Comp; protein EFTUD2 Q15029
[19] = protein PSMD1 (Q99460), Exp Comp, analysis C6, p 0.1250, 4 peptides

proteins of HEK293T cells transiently overexpressing caspase-6 (Homo sapiens, UniProt P12004), sequence (P12004 whole entry): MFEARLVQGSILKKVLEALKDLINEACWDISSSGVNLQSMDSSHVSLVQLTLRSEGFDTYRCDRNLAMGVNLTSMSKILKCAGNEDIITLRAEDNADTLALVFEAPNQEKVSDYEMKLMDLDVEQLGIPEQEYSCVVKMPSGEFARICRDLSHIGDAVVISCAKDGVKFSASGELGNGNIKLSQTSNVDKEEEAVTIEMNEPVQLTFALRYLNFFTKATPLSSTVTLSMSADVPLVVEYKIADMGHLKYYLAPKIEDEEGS

C=CS(=O)(=O)N1C[C@H](C(=O)Nc2ccc(OC(F)(F)F)cc2)C[C@@H](c2ccccc2)C1 [3a]
enrich.exp.med [1]: 0.6316 | enrich.exp.med [2]: 0.8512 | enrich.exp.med [3]: 0.668 | enrich.exp.med [4]: 0.7021 | enrich.exp.med ([5]; Comp, protein PSMD1 Q99460): 0.9459 | enrich.exp.med.lin [5, 19]: 1.926 | enrich.exp.med.log2 [5, 19]: 0.9459 | enrich.exp.med [6]: 0.6442 | enrich.exp.med [7]: 0.7888 | enrich.exp.med [8]: 0.809 | enrich.exp.med [9]: 0.6036 | enrich.exp.med [10]: 0.8256 | enrich.exp.med [11]: 0.6326 | enrich.exp.med [12]: 0.7591 | enrich.exp.med [13]: 0.6295 | enrich.exp.med [14]: 0.7263 | enrich.exp.med [15]: 0.8298 | enrich.exp.med [16]: 0.6493 | enrich.exp.med [17]: 0.7149 | enrich.exp.med [18]: 0.5983
